Measurements as given in patent EP4656642A1, “ESTROGEN RECEPTOR PROTEOLYSIS TARGETING CHIMERA COMPOUND AND USE THEREOF” (GAN & LEE PHARM CO., LTD, priority 2023, dated 2024).
Changes are numbered by the printed parent chain.

Tests used:
[1] = target: T1, AR protein (Homo sapiens, UniProt P10275); type: cell-based; settings: 8 h
T1 construct: host or cells: VCaP
T1 sequence (P10275 1-920): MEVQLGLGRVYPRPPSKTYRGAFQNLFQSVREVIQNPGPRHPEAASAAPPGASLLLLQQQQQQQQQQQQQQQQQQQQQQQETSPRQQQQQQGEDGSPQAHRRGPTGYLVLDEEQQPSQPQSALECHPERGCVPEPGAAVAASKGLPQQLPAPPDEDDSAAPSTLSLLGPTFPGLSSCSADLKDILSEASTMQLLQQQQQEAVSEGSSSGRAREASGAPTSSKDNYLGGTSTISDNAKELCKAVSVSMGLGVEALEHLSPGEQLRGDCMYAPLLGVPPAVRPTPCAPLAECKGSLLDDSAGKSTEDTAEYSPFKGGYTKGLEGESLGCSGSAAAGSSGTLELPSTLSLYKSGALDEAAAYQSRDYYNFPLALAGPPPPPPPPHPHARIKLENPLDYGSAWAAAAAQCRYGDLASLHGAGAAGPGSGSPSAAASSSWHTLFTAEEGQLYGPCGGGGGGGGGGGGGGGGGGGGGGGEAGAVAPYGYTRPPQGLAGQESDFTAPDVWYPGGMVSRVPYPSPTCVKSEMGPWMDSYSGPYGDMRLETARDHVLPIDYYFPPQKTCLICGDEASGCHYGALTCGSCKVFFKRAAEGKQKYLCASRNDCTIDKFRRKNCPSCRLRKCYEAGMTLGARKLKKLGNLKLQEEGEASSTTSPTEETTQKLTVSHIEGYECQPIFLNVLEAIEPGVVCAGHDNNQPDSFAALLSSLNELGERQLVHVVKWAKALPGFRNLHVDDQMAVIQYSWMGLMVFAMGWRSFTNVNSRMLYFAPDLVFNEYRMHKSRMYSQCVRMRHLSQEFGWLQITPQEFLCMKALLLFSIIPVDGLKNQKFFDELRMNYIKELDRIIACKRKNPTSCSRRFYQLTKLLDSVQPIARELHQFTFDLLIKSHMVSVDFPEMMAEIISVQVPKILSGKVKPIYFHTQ
Description: Test Example 9 Degradation activity of the compounds disclosed in the present disclosure against AR protein in VCAP cells (cell source: ATCC)
AR-positive human prostate cancer cells, VCaP, were inoculated in six-well microplates (Thermo Catalog No. 140675) in DMEM (GiBco Catalog No. 11995-065) containing 10% FBS (Hyclone Catalog No. SH30406.05) at a density of 3 × 10^5 cells/well. […] After 8 h, the culture medium was discarded, and cells were washed with PBS, then RIPA lysis buffer containing 1% Protease Inhibitor Cocktail was added, and the total protein extract was obtained after lysis and centrifugation, and the protein concentration in the extract was detected by BCA method. Protein electrophoresis was carried out by SDS-PAGE, after which the protein was transferred to PVDF (Millipore Sigma catalog number PSRP010R5) membrane by 100V constant-voltage electrotransfer for 60 min, and the PVDF membrane was placed in 1×TBST solution with 5% milk and blocked at room temperature for 1 h. The primary antibody solution (Anti-Androgen receptor, Cell Signaling Technology Catalog No. 5153S; 1: 2000 dilution) was prepared and incubated overnight at 4°C. The primary antibody solution was discarded, and the PVDF membrane was washed three times with 1× TBST for 5 min each. The secondary antibody solution (Thermo catalog number SA5-35571; 1:7500 dilution) was prepared, and the secondary antibody dilution was incubated at room temperature for 1h. The secondary antibody solution was discarded, and the PVDF membrane was washed three times with 1×TBST for 5 min each. Western membrane imaging was performed using a dual-color infrared laser imaging system (Licor catalog number Odyssey CLX). Bands were analyzed in grayscale using the software Image Studio. For each sample, GAPDH protein bands were detected as internal reference. The degradation rates of the AR protein for the compounds and positive control sample were calculated based on the grayscale of the protein bands.

[2] = target: T2, AR protein (Homo sapiens, UniProt P10275, T878A); assay: Degradation of AR protein in LNCAP cells (Western blot, 8 h); type: cell-based; settings: LNCaP FGC cells
T2 construct: host or cells: LNCaP FGC
T2 sequence (P10275 1-920 T878A): T1 sequence (P10275 1-920) with T878A
Description: After 8 h, the culture medium was discarded, and the cells were washed with PBS. After the cells were washed with PBS, RIPA lysis buffer containing 1% Protease Inhibitor Cocktail was added, and the total protein extract was obtained after lysis and centrifugation, and the protein concentration in the extract was detected by BCA method. Protein electrophoresis was carried out by SDS-PAGE, after which the proteins were transferred to PVDF (Millipore Sigma Catalog No. PSRP010R5) membrane by 100V constant voltage electrotransfer for 60 min, and the PVDF membrane was placed in 1×TBST solution with 5% milk and blocked at room temperature for 1h. […] The primary antibody solution was discarded, and the PVDF membrane was washed three times with 1× TBST for 5 min each. […] The secondary antibody solution was discarded, and the PVDF membrane was washed three times with 1× TBST for 5 min each. Western membrane imaging was performed using a dual-color infrared laser imaging system (Licor catalog number Odyssey CLX). Bands were analyzed in grayscale using the software Image Studio. For each sample, GAPDH protein bands were detected as internal reference. The degradation rates of the AR protein for the compounds and positive control sample were calculated based on the grayscale of the protein bands.

## COc1cc(O[C@H]2CC[C@H](NC(=O)c3ccc(N4CCC(C)(CN5CCC6(CC5)COc5c6ccc6c5C(=O)N(C5CCC(=O)NC5=O)C6)CC4)nn3)CC2)ccc1C#N (relative stereo) [2-261]
[1]
  Degradation rates of the AR protein in VCAP cells, 0.5 nM: 44%
  Degradation rates of the AR protein in VCAP cells, 5 nM: 82%
[2]
  Degradation rates of the AR protein in LNCAP cells, 10 nM (%): 53%
  Degradation rates of the AR protein in LNCAP cells, 100 nM (%): 70%

## CC1(CN2CCC3(CC2)COc2c3ccc3c2C(=O)N(C2CCC(=O)NC2=O)C3)CCN(c2ccc(C(=O)N[C@H]3CC[C@H](Oc4ccc(C#N)c(Cl)c4)CC3)nn2)CC1 (relative stereo) [2-262]
[1]
  Degradation rates of the AR protein in VCAP cells, 0.5 nM: 34%
  Degradation rates of the AR protein in VCAP cells, 5 nM: 75%
[2]
  Degradation rates of the AR protein in LNCAP cells, 10 nM (%): 47%
  Degradation rates of the AR protein in LNCAP cells, 100 nM (%): 68%

## COC1(CN2CCC3(CC2)COc2c3ccc3c2C(=O)N(C2CCC(=O)NC2=O)C3)CCN(c2ccc(C(=O)N[C@H]3CC[C@H](Oc4ccc(C#N)c(Cl)c4)CC3)nn2)CC1 (relative stereo) [2-263]
[1]
  Degradation rates of the AR protein in VCAP cells, 0.5 nM: 65%
  Degradation rates of the AR protein in VCAP cells, 5 nM: 88%
[2]
  Degradation rates of the AR protein in LNCAP cells, 10 nM (%): 38%
  Degradation rates of the AR protein in LNCAP cells, 100 nM (%): 69%

## COc1cc(O[C@H]2C(C)(C)[C@H](NC(=O)c3ccc(N4CCC(C)(CN5CCC6(CC5)COc5c6ccc6c5C(=O)N(C5CCC(=O)NC5=O)C6)CC4)cc3)C2(C)C)ccc1C#N (relative stereo) [2-292]
[1]
  Degradation rates of the AR protein in VCAP cells, 0.5 nM: 30%
  Degradation rates of the AR protein in VCAP cells, 5 nM: 72%
[2]
  Degradation rates of the AR protein in LNCAP cells, 10 nM (%): 43%
  Degradation rates of the AR protein in LNCAP cells, 100 nM (%): 78%

## COc1cc(O[C@H]2C(C)(C)[C@H](NC(=O)c3ccc(N4CCC(CN5CCC6(CC5)COc5c6ccc6c5C(=O)N(C5CCC(=O)NC5=O)C6)(OC)CC4)cc3)C2(C)C)ccc1C#N (relative stereo) [2-293]
[1]
  Degradation rates of the AR protein in VCAP cells, 0.5 nM: 72%
  Degradation rates of the AR protein in VCAP cells, 5 nM: 89%
[2]
  Degradation rates of the AR protein in LNCAP cells, 10 nM (%): 62%
  Degradation rates of the AR protein in LNCAP cells, 100 nM (%): 82%

## N#Cc1ccc(O[C@H]2CC[C@H](NC(=O)c3ccc(N4CCC(F)(CN5CCC6(CC5)COc5c6ccc6c5C(=O)N(C5CCC(=O)NC5=O)C6)CC4)nn3)CC2)cc1Cl (relative stereo) [2-315]
[1]
  Degradation rates of the AR protein in VCAP cells, 0.5 nM: 31%
  Degradation rates of the AR protein in VCAP cells, 5 nM: 71%
[2]
  Degradation rates of the AR protein in LNCAP cells, 10 nM (%): 33%
  Degradation rates of the AR protein in LNCAP cells, 100 nM (%): 44%

## COc1cc(O[C@H]2CC[C@H](NC(=O)c3ccc(N4CCC(F)(CN5CCC6(CC5)COc5c6ccc6c5C(=O)N(C5CCC(=O)NC5=O)C6)CC4)nn3)CC2)ccc1C#N (relative stereo) [2-316]
[1]
  Degradation rates of the AR protein in VCAP cells, 0.5 nM: 35%
  Degradation rates of the AR protein in VCAP cells, 5 nM: 61%
[2]
  Degradation rates of the AR protein in LNCAP cells, 10 nM (%): 49%
  Degradation rates of the AR protein in LNCAP cells, 100 nM (%): 61%

## COc1cc(O[C@H]2C(C)(C)[C@H](NC(=O)c3ccc(N4CCC(CN5CCC6(CC5)COc5c6ccc6c5C(=O)N(C5CCC(=O)NC5=O)C6)CC4)cc3)C2(C)C)ccc1C#N (relative stereo) [2-318]
[1]
  Degradation rates of the AR protein in VCAP cells, 0.5 nM: 55%
  Degradation rates of the AR protein in VCAP cells, 5 nM: 78%
[2]
  Degradation rates of the AR protein in LNCAP cells, 10 nM (%): 58%
  Degradation rates of the AR protein in LNCAP cells, 100 nM (%): 73%

## C[C@H]1CC2(CCN(c3ccc(N4CCC(CN5CCC6(CC5)COc5c6ccc6c5C(=O)N(C5CCC(=O)NC5=O)C6)CC4)cc3)CC2)CN1c1ccc(C#N)c(Cl)c1 (stereo partly drawn) [2-103]
[1]
  Degradation rates of the AR protein in VCAP cells, 0.5 nM: 0%
  Degradation rates of the AR protein in VCAP cells, 5 nM: 47%
[2]
  Degradation rates of the AR protein in LNCAP cells, 10 nM (%): 55%
  Degradation rates of the AR protein in LNCAP cells, 100 nM (%): 79%
